Data set [1] concerns Wister-strain male rats. In words: Acute toxicity test. Type of data set: in vivo. The conditions noted are these: 100 ml/kg-body weight, intravenous, observed for one week. As for the experimental part:
The acute toxicity test on the preparations of the present invention was carried out using the preparations of the present invention shown in Table 4 which had been physiologically isotonized. The test animals used were Wister-strain male rats (weighing 100-120 g).

Data set [2] in a line: Distribution of perfluoro-compound in organs (gas chromatography). Type of data set: in vivo, Wister-strain male rats. Conditions: 4 g/kg, tail vein, rats.

Consider two molecules from patent US4591599A, “Perfluoropyrrolizines and emulsions thereof useful as blood substitutes” (The Green Cross Corporation, priority 1984, dated 1986).

Turning to `FC(F)(F)C(F)(F)C1(F)N2C(F)(F)C(F)(F)C(F)(F)C(F)(F)C2(F)C(F)(F)C(F)(F)C1(F)F` (stereo not drawn) [Example 101, perfluoro-4-ethyloctahydroquinolidine], in data set [1], the death cases result is reported as “no death case”.
Turning to `FC(F)(F)C1(F)N2C(F)(F)C(F)(F)C(F)(F)C(F)(F)C2(F)C(F)(F)C(F)(F)C1(F)F` (stereo not drawn) [Example 1, perfluoro-4-methyloctahydroquinolidine], the death cases result in data set [1] is on record as “no death case”. The “adverse influence on the liver or spleen organ” value in data set [2] (3 months) was “no evidence of adverse influence on the liver or spleen organ”. In data set [2] (3 months), the “uptake by and disappearance from the reticulo-endothelial organs” value was “taken up in greater amounts by the reticulo-endothelial organs shortly after the administration, but soon disappeared rapidly”. The “Residual Rate of perfluorobicyclo compound” value in data set [2] (Liver, 1 week after administration) turned out to be 19.92%; in data set [2] (Liver, 2 weeks after administration), 8.66%; in data set [2] (Liver, 3 months after administration), 0.30%; in data set [2] (Liver, 4 weeks after administration), 1.88%; in data set [2] (Spleen, 1 week after administration), 11.61%; in data set [2] (Spleen, 2 weeks after administration) it was 9.33%. In addition, the “Residual Rate of perfluorobicyclo compound” value in data set [2] (Spleen, 3 months after administration) is reported as 0.09%; in data set [2] (Spleen, 4 weeks after administration) it was 2.45%.
